The results in this text go back to PubChem BioAssay (NCI).

Values joined by “and” are separate entries in the source; they are usually repeats but may differ in a detail not shown here. Equal values may be shown once.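 Protocol summary: plate cells (96-well), add compound at 5 concentrations, incubate 48 h, interpolate endpoints linearly. GI50: concentration for 50% inhibition of growth. TGI marks complete inhibition of growth.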 Where only a bound is given, the exact number is not on record here.

Some test systems named below: ACHN renal; HCC-2998 colon; HCT-15 colon; HT29 colon; IGROV1 ovarian; NCI-H522 lung; NCI/ADR-RES ovarian; OVCAR-8 ovarian; RPMI-8226 leukemia; T-47D breast.
Experiment in all cases: NCI tumour cell line growth inhibition, 48 h

As for `CCCN(CCC)CCCNCc1cc(I)cc(C)c1O`, the GI50 is 17.1 µM in the experiment on ACHN renal; 20.9 µM in the experiment on HCC-2998 colon; 15.3 µM in the experiment on HCT-15 colon; 7.21 µM in the experiment on HT29 colon; 15.6 µM in the experiment with IGROV1 ovarian; 16.9 µM in the experiment on NCI-H522 lung. Also, the GI50 in the experiment with NCI/ADR-RES ovarian is 15.4 µM; in the experiment with OVCAR-8 ovarian, 17.4 µM; in the experiment with RPMI-8226 leukemia it was 10.8 µM; in the experiment with T-47D breast it was 15.9 µM. Also, the TGI in the experiment on ACHN renal worked out at 34.8 µM; in the experiment on HCC-2998 colon, 36.1 µM; in the experiment with HCT-15 colon, 29.7 µM; in the experiment on HT29 colon, 20 µM; with IGROV1 ovarian, 29.6 µM; with NCI-H522 lung it was 31.1 µM. Also, the TGI in the experiment with NCI/ADR-RES ovarian worked out at 29.8 µM; in the experiment with OVCAR-8 ovarian it was 35.7 µM; with RPMI-8226 leukemia, 27.2 µM; in the experiment with T-47D breast, 42.1 µM.
Regarding `O=[N+]([O-])c1ccc(Nc2ccccc2-c2ccccc2)c2nonc12`, the GI50 in the experiment with ACHN renal is 20.8 µM; in the experiment with HCC-2998 colon, 11.7 µM; with HCT-15 colon, 13.2 µM; with HT29 colon, 19.3 µM; with IGROV1 ovarian, 12 µM; in the experiment on NCI-H522 lung, 11.6 µM. The GI50 is 13.6 µM in the experiment with NCI/ADR-RES ovarian, 21.1 µM in the experiment with OVCAR-8 ovarian, 6.91 µM in the experiment with RPMI-8226 leukemia and 10.5 µM in the experiment on T-47D breast. Also, the TGI was 87.5 µM in the experiment with ACHN renal; 27.2 µM in the experiment with HCC-2998 colon; 28.2 µM in the experiment on HCT-15 colon; 47.2 µM in the experiment on HT29 colon; above 63.6 µM in the experiment with IGROV1 ovarian; 37.5 µM in the experiment on NCI-H522 lung. Besides, the TGI is 34.7 µM with NCI/ADR-RES ovarian, 75.9 µM in the experiment on OVCAR-8 ovarian, above 100 µM in the experiment on RPMI-8226 leukemia and above 100 µM with T-47D breast.
As to `COc1cccc(C2CC(c3cc(OC)c(OC)c(OC)c3)=NN2)c1` (stereo not given), the GI50 with ACHN renal is 21.7 µM; with HCC-2998 colon, 4.78 µM; with HCT-15 colon, 10.1 µM; with HT29 colon, 3.2 µM; in the experiment with IGROV1 ovarian, 2.02 µM; with NCI-H522 lung it was 12.8 µM. Also, the GI50 with NCI/ADR-RES ovarian was 4.55 µM; in the experiment on OVCAR-8 ovarian, 13.9 µM; in the experiment with RPMI-8226 leukemia, 5.18 µM; with T-47D breast it was 20.2 µM. The TGI with ACHN renal was 53 µM; in the experiment on HCC-2998 colon, 18.3 µM; in the experiment on HCT-15 colon, 23.8 µM; with HT29 colon, 27.2 µM; with IGROV1 ovarian it was 13.1 µM; with NCI-H522 lung, 42.1 µM. Moreover, the TGI with NCI/ADR-RES ovarian was 27.4 µM; in the experiment on OVCAR-8 ovarian, 39 µM; in the experiment with RPMI-8226 leukemia it was 26 µM; in the experiment with T-47D breast, above 100 µM.
Regarding `Cc1ccc(NCCCN2CCN(CCCNc3ccc(C)c4sc5ccccc5c(=O)c34)CC2)c2c(=O)c3ccccc3sc12`, the TGI with ACHN renal, with HCC-2998 colon, in the experiment with HCT-15 colon, in the experiment on HT29 colon, in the experiment on IGROV1 ovarian and in the experiment with NCI-H522 lung was above 100 µM in each case. Moreover, the TGI with NCI/ADR-RES ovarian, with OVCAR-8 ovarian, in the experiment on RPMI-8226 leukemia and in the experiment with T-47D breast was above 100 µM in each case.
For the compound `C=CC(=O)Nc1ccc(Nc2nccc(-c3ccc(N4CCCC4)c(C#N)c3)n2)cc1`, the GI50 with ACHN renal is 2.45 µM; in the experiment on HCC-2998 colon, above 25 µM; in the experiment on HCT-15 colon, 1.17 µM; with HT29 colon, above 25 µM; in the experiment on IGROV1 ovarian, 1.85 µM; in the experiment with NCI-H522 lung, 9.97 µM. In addition, the GI50 with NCI/ADR-RES ovarian is above 25 µM; with OVCAR-8 ovarian, above 25 µM; in the experiment on RPMI-8226 leukemia, 10.1 µM; with T-47D breast, above 25 µM. In addition, the TGI was above 25 µM in the experiment with ACHN renal; above 25 µM in the experiment on HCC-2998 colon; 10.3 µM in the experiment on HCT-15 colon; above 25 µM in the experiment on HT29 colon; above 25 µM with IGROV1 ovarian; above 25 µM in the experiment on NCI-H522 lung. For the same compound, the TGI with NCI/ADR-RES ovarian, in the experiment with OVCAR-8 ovarian, in the experiment with RPMI-8226 leukemia and in the experiment with T-47D breast was above 25 µM in each case.
For the compound `CC/C(Cc1ccccc1)=C(\c1ccc(OCCN2CCCCCC2)cc1)c1ccc(OC(=O)NCc2ccccc2)cc1`, the GI50 in the experiment on ACHN renal was 1.49 µM; with HCC-2998 colon, 2.01 µM; with HCT-15 colon, 1.07 µM; in the experiment on HT29 colon, 1.34 µM; with IGROV1 ovarian it was 2.31 µM; in the experiment with NCI-H522 lung, 1.9 µM. Besides, the GI50 with NCI/ADR-RES ovarian is 3.9 µM; in the experiment with OVCAR-8 ovarian, 1.67 µM; in the experiment on RPMI-8226 leukemia, 1.16 µM; in the experiment with T-47D breast, 0.916 µM. The TGI in the experiment with ACHN renal stood at 5.34 µM; in the experiment on HCC-2998 colon, 8.05 µM; in the experiment on HCT-15 colon, 2.94 µM; in the experiment on HT29 colon, 3.53 µM; in the experiment with IGROV1 ovarian, 8.82 µM; with NCI-H522 lung, 7.35 µM. Further, the TGI was found to be 12.3 µM with NCI/ADR-RES ovarian, 4.96 µM in the experiment with OVCAR-8 ovarian, 2.87 µM in the experiment with RPMI-8226 leukemia and 7.91 µM in the experiment on T-47D breast.
Consider `CO[C@H](C(=O)[C@@H](O)[C@@H](C)O)[C@@H]1Cc2cc3cc(O[C@H]4C[C@@H](O[C@H]5C[C@@H](O)[C@H](O)C(C)O5)[C@H](O)C(C)O4)c(C)c(O)c3c(O)c2C(=O)[C@H]1O[C@H]1C[C@@H](O[C@H]2C[C@@H](O[C@H]3C[C@@H](OC)[C@H](O)C(C)O3)[C@@H](O)C(C)O2)C(O)(O)C(C)O1` (stereo not given in full), for which the GI50 in the experiment with ACHN renal was 0.191 µM; with HCC-2998 colon, 0.47 µM; in the experiment on HCT-15 colon it was 2.65 µM; with HT29 colon, 0.212 µM; in the experiment on IGROV1 ovarian it was 0.116 µM; in the experiment with NCI-H522 lung, 0.0168 µM. The GI50 with NCI/ADR-RES ovarian is above 25 µM; in the experiment with OVCAR-8 ovarian, 0.225 µM; in the experiment with RPMI-8226 leukemia, 0.182 µM; in the experiment on T-47D breast, 0.0543 µM. Moreover, the TGI is above 25 µM with ACHN renal; 5.09 µM in the experiment on HCC-2998 colon; above 25 µM in the experiment with HCT-15 colon; 5.01 µM in the experiment with HT29 colon; above 25 µM with IGROV1 ovarian; 0.304 µM in the experiment with NCI-H522 lung. Further, the TGI in the experiment on NCI/ADR-RES ovarian is above 25 µM; in the experiment with OVCAR-8 ovarian, above 25 µM; in the experiment on RPMI-8226 leukemia, above 11.4 µM; in the experiment with T-47D breast, 24.6 µM.
Regarding `CN1CCN(c2ccc(C(=O)Nc3n[nH]c4ccc(Cc5cc(F)cc(F)c5)cc34)c(NC3CCOCC3)c2)CC1`, the GI50 was 2.25 µM and 1.42 µM with ACHN renal; 1.49 µM and 1.59 µM in the experiment on HCC-2998 colon; 1.87 µM and 1.32 µM in the experiment with HCT-15 colon; 0.971 µM and 1.06 µM in the experiment with HT29 colon; 0.641 µM and 1.3 µM in the experiment on IGROV1 ovarian; 1.6 µM and 1.7 µM in the experiment with NCI-H522 lung. For the same compound, the GI50 in the experiment with NCI/ADR-RES ovarian was 4.81 µM and 2.02 µM; in the experiment on OVCAR-8 ovarian, 1.73 µM; with RPMI-8226 leukemia, 2.3 µM and 1.86 µM; in the experiment on T-47D breast, 1.99 µM. For the same compound, the TGI in the experiment with ACHN renal is > 10 µM and 2.8 µM; in the experiment on HCC-2998 colon it was 3 µM and 3.18 µM; with HCT-15 colon, 6.67 µM and 2.93 µM; in the experiment on HT29 colon it was 3.38 µM and 2.46 µM; in the experiment with IGROV1 ovarian, 3 µM and 2.72 µM; in the experiment with NCI-H522 lung, 3.36 µM and 3.24 µM. Further, the TGI in the experiment with NCI/ADR-RES ovarian was > 10 µM and 4.54 µM; with OVCAR-8 ovarian, > 10 µM and 3.48 µM; in the experiment with RPMI-8226 leukemia, 7.02 µM and 4.39 µM; in the experiment with T-47D breast it was above 10 µM.
